Data set [1] is described as follows: in vivo. Conditions: rabbit, topical or ocular.
A short description of data set [2]: Relative Dermal Toxicities (LD50 Rabbit Dermal Toxicity). The settings on record: in vivo, topical or ocular, Female, maduramicin.
The nature of data set [3]: Segregation study (drug accumulation in medicated poultry feed after two hours on drum roller). It is filed as physicochemical. Here is the method: The segregation test is performed in a commercially-blended poultry feed, supplemented with 1000 ppm (0.1%) of drug, using the premix prepared in Example 1 in one blend and pure drug with an equivalent amount of corncob grits in the other as indicated in Table IV below.
These materials are placed into new one-gallon Nalgene dense polyethylene jars and placed on a drum roller for two hours. At the end of the mixing time, the jars are sampled in the horizontal position to remove the material which has accumulated and packed in the neck (#1), then the jars are emptied without shaking or tapping, and a cross-sectional sample taken from the bulk (#2); finally, the empty jar is extracted and assayed for residual drug (#3).

Where [4] appears, read: emptied jar residue, feed with 1000 ppm drug.
[5] abbreviates: neck of jar, feed with 1000 ppm drug.

A word on the LD50: it is the dose at which mortality reaches 50%. A higher LD50 goes with a less toxic substance.

In the case of `CO[C@@H]1[C@@H](OC)[C@H](C)[C@@](O)(CC(=O)O)O[C@H]1[C@H](C)[C@H]1O[C@@]2(CC[C@@](C)([C@H]3CC[C@@](C)([C@@H]4O[C@@H]([C@H]5O[C@](C)(O)[C@H](C)C[C@@H]5C)C[C@@H]4O[C@@H]4C[C@H](OC)[C@@H](OC)[C@H](C)O4)O3)O2)C[C@H](O)[C@H]1C` [Composition 1, maduramicin], the results for the LD50 in data set [1] and in data set [2] were 8.9 mg/kg and 3.7 mg/kg, respectively.
For `COC1CC(OC2CC(C3OC(C)(O)C(C)CC3C)OC2C2(C)CCC(C3(C)CCC4(CC(O)C(C)C(C(C)C5OC(O)(CC(=O)O)C(C)C(OC)C5OC)O4)O3)O2)OC(C)C1OC` (stereo not drawn) [Pure Drug], the “#2 Bulk sample, Assay” value in data set [3] (cross-sectional bulk sample, feed with 1000 ppm drug) turned out to be 1115 ppm. Also, in data set [3] (setting [4]), the “#3 Bottle residue, Assay” value is 2300 ppm; the “#3 Bottle residue, Total Drug” value was 1.85 mg; the “#3 Bottle residue, Weight” value was 0.80 g. Moreover, in data set [3] (mixed dry with feed), the “separation of drug from the feed” value is “separates freely from the feed”. The “tendency to accumulate in the spots of least movement” value in data set [3] (mixed dry with feed, neck of the bottle, vs premix) is “greater tendency to accumulate in the spots of least movement”. Besides, the “actual amount of drug segregating, pure drug vs premix (times larger)” value in data set [3] (neck accumulation, pure drug relative to premix) is given as “more than seven”. Further, in data set [3] (setting [5]), the “#1 Neck accumulation, Assay” value is 1745 ppm; the “#1 Neck accumulation, Total Drug” value is recorded as 14.8 mg; the “#1 Neck accumulation, Weight” value is 8.5 g.

The record behind these values is patent US4824829A, “Non-dusting antibiotic, anticoccidial premix compositions and a process for their manufacture” (American Cyanamid Company, priority 1985, dated 1989).
